Assay results as given in article PMC3530165 (Chemistry & biology, 2012).
≈ marks a conversion by molar mass, not a printed value. Where two headings read alike, the source gives them in different places.

Key:
mc^2-7000 Mtb = experiment: MABA MIC99 determination, mc^2-7000 strain; assay type: cell-based, Mycobacterium tuberculosis; conditions: for MIC99 mc^2-7000 Mtb acetate: M9 media with acetate; for MIC99: Mycobacterium tuberculosis
UV absorbance peak = UV absorbance peak in solution
[1] = Compound stability in solution; conditions: stability in cell growth media or buffer solutions
M. tuberculosis = assay type: in vivo; conditions: target dose 30 mg/kg, once a day, 9 days post-infection
ICL [2] = target: T1, ICL (Mycobacterium tuberculosis, UniProt P9WKK7); conditions: read-out: IC50 against ICL; ref Muñoz-Elías and McKinney, 2005; cited from earlier work
T1 sequence (P9WKK7 1-428): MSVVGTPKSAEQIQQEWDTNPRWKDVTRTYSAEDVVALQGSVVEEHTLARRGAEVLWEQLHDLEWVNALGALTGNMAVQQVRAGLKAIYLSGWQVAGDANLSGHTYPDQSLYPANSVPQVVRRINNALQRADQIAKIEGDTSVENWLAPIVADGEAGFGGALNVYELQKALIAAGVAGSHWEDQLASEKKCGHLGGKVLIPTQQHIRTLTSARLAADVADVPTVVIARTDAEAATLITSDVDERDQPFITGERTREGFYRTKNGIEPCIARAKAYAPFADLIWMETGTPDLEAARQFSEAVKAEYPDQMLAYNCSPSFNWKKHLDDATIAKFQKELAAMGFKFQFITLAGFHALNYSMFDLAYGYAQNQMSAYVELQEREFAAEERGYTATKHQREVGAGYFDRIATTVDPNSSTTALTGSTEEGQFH

ICL [3] = target: T1, ICL; experiment: Isocitrate lyase; assay type: biochemical; conditions: single concentration point of 40 μg/ml
H37Rv = experiment: MABA MIC99 determination, H37Rv strain; assay type: cell-based, Mycobacterium tuberculosis
[4] = assay type: in vitro ADME; conditions: equilibrium dialysis
[5] = read-out: MIC99 mc^2-7000 Mtb acetate
[6] = read-out: MIC99 mc^2-7000 Mtb dextrose

| SMILES | MIC99 mc^2-7000 Mtb dextrose (mc^2-7000 Mtb) [µM] | MIC99 mc^2-7000 Mtb acetate (mc^2-7000 Mtb) [µM] | λmax (UV absorbance peak) [nM] | Half-life [1] [h] | other results |
| --- | --- | --- | --- | --- | --- |
| O=C(O)C(=O)CC(=O)c1ccc(Br)cc1 [Compound 9] | 25 (≈ 6.78 µg/mL) | 50 (≈ 13.6 µg/mL) | 345 | 170 |  |
| COc1c(N2C[C@@H]3CCCN[C@@H]3C2)c(F)cc2c(=O)c(C(=O)O)cn(C3CC3)c12 [Moxifloxacin] |  |  |  |  | Decrease in log10 CFU in lungs (M. tuberculosis): 3.07 log10 CFU |
| O=C(O)CC[N+](=O)[O-] [3-nitropropionate] |  |  |  |  | IC50 (ICL [2]): 3000 nM |
| O=C(O)C(=O)CC(=O)c1ccccc1F [Compound 2] | 200 (≈ 42 µg/mL) | >200 | 333 | 288 |  |
| O=C(O)/C(O)=C/C(=O)c1ccccc1 [PDKA, (Z)-2-hydroxy-4-oxo-4-phenylbut-2-enoic acid] |  |  | 340 |  | activity against ICL (ICL [3]): inactive; MIC99 (mc^2-7000 Mtb; [5]): 50 µM (≈ 9.61 µg/mL); MIC99 (mc^2-7000 Mtb; [6]): 25 µM (≈ 4.8 µg/mL); Half-life (physchem): ~72 h |
| Cc1ccc(C(=O)CC(=O)C(=O)O)cc1 [Compound 8] | 100 (≈ 20.6 µg/mL) | 50 (≈ 10.3 µg/mL) | 340 | 190 |  |
| O=C(O)C(=O)CC(=O)c1ccccc1Cl [Compound 3] | 200 (≈ 45.3 µg/mL) | >200 | 324 | 840 |  |
| CO[C@H]1/C=C/O[C@@]2(C)Oc3c(C)c(O)c4c(O)c(c(/C=N/N5CCN(C)CC5)c(O)c4c3C2=O)NC(=O)/C(C)=C\C=C\[C@H](C)[C@H](O)[C@@H](C)[C@@H](O)[C@@H](C)[C@H](OC(C)=O)[C@@H]1C [Rifampicin, reference compound] |  |  |  |  | MIC99 (mc^2-7000 Mtb; [5]): 0.25 µM (≈ 0.206 µg/mL); MIC99 (mc^2-7000 Mtb; [6]): 0.125 µM (≈ 0.103 µg/mL) |
| O=C(O)C(=O)CC(=O)c1cccc(Cl)c1 [Compound 6] | 25 (≈ 5.67 µg/mL) | 25 (≈ 5.67 µg/mL) | 341 | 170 |  |
| Cc1ccccc1C(=O)CC(=O)C(=O)O [Compound 1] | 200 (≈ 41.2 µg/mL) | >200 | 326 | 720 | H37Rv MIC99 on acetate (H37Rv; acetate): 16 µM; H37Rv MIC99 on dextrose (H37Rv; dextrose): 31 µM; Mouse plasma protein binding [4]: 70.7 ± 1.8% |
